What was measured:
[1] = tested on: S. aureus DSM 20231; assay: fitness (endpoint OD595 vs no drug) (fraction); higher = more growth
Procedure, shortened: (§1)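 Fitness compares growth at the stationary-phase transition with the robust mean of no-drug control wells, as a ratio of optical densities. The ratio is capped at 1. Wells of 384-well plates held 30 µl, or 55 µl for S. pneumoniae, inoculated at OD595 0.01. Readings at OD595 every 30 min for 14 h at 37 °C were corrected against the first reading.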

[2] = tested on: S. aureus Newman; assay: as above
Procedure, shortened: as §1

[3] = tested on: S. pneumoniae D39V; assay: as above
Procedure, shortened: as §1

[4] = tested on: B. subtilis 168; assay: Bliss interaction score (quartile over a dose matrix) (fitness difference); higher = more antagonism (negative = synergy)
Procedure, shortened: (§2)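 Values were capped at 1 after dividing OD595 at stationary-phase entry by the plate's robust no-drug mean. This ratio is fitness, and single-drug fitness was inferred from the combination data. The Bliss score is observed minus product-expected fitness, given as quartiles over technical, biological and donor/recipient replicates.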

[5] = tested on: S. aureus DSM 20231; assay: as above
Procedure, shortened: as §2

[6] = tested on: S. aureus Newman; assay: as above
Procedure, shortened: as §2

[7] = tested on: S. pneumoniae D39V; assay: as above
Procedure, shortened: as §2
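For Bliss interaction score (quartile over a dose matrix) in this document: first quartile when negative (synergy) and third quartile when positive (antagonism).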

CC1(C)S[C@@H]2[C@H](NC(=O)[C@H](N)c3ccc(O)cc3)C(=O)N2[C@H]1C(=O)O [Amoxicillin] + Cc1ncc([N+](=O)[O-])n1CCO [Metronidazole]
Conditions	fitness
[1], first compound 0.0625 µg/mL, partner 0.625 µg/mL	0.588
[1], first compound 0.125 µg/mL, partner 1.25 µg/mL	0.428
[1], first compound 0.5 µg/mL, partner 0.625 µg/mL	0.0108
[1], first compound 0.5 µg/mL, partner 1.25 µg/mL	0.0138
[1], first compound 0.5 µg/mL, partner 2.5 µg/mL	0.0153
[2], first compound 0.0625 µg/mL, partner 0.625 µg/mL	0.835
[2], first compound 0.0625 µg/mL, partner 0.781 µg/mL	0.922
[2], first compound 0.0625 µg/mL, partner 1.25 µg/mL	0.906
[2], first compound 0.0625 µg/mL, partner 1.562 µg/mL	0.917
[2], first compound 0.0625 µg/mL, partner 2.5 µg/mL	0.87
[2], first compound 0.0625 µg/mL, partner 3.124 µg/mL	0.913
[2], first compound 0.125 µg/mL, partner 0.625 µg/mL	0.839
[2], first compound 0.125 µg/mL, partner 0.781 µg/mL	0.952
[2], first compound 0.125 µg/mL, partner 1.25 µg/mL	0.905
[2], first compound 0.125 µg/mL, partner 1.562 µg/mL	0.972
[2], first compound 0.125 µg/mL, partner 2.5 µg/mL	0.836
[2], first compound 0.125 µg/mL, partner 3.124 µg/mL	0.957
[2], first compound 0.25 µg/mL, partner 0.625 µg/mL	0.799
[2], first compound 0.25 µg/mL, partner 0.781 µg/mL	0.945
[2], first compound 0.25 µg/mL, partner 1.25 µg/mL	0.789
[2], first compound 0.25 µg/mL, partner 1.562 µg/mL	0.951
[2], first compound 0.25 µg/mL, partner 2.5 µg/mL	0.816
[2], first compound 0.25 µg/mL, partner 3.124 µg/mL	0.929
[3], first compound 0.0008 µg/mL, partner 1.073 µg/mL	0.958
[3], first compound 0.0008 µg/mL, partner 2.145 µg/mL	0.946
[3], first compound 0.0008 µg/mL, partner 4.29 µg/mL	0.919
[3], first compound 0.0015 µg/mL, partner 1.073 µg/mL	0.972
[3], first compound 0.0015 µg/mL, partner 1.25 µg/mL	0.988
[3], first compound 0.0015 µg/mL, partner 2.145 µg/mL	0.926
[3], first compound 0.0015 µg/mL, partner 2.5 µg/mL	≥ 1
[3], first compound 0.0015 µg/mL, partner 4.29 µg/mL	0.941
[3], first compound 0.0015 µg/mL, partner 5 µg/mL	0.995
[3], first compound 0.003 µg/mL, partner 1.073 µg/mL	0.938
[3], first compound 0.003 µg/mL, partner 1.25 µg/mL	0.97
[3], first compound 0.003 µg/mL, partner 2.145 µg/mL	0.914
[3], first compound 0.003 µg/mL, partner 2.5 µg/mL	0.989
[3], first compound 0.003 µg/mL, partner 4.29 µg/mL	0.93
[3], first compound 0.003 µg/mL, partner 5 µg/mL	0.946

fitness, [3], one replicate
Conditions	partner 1.25 µg/mL	partner 2.5 µg/mL	partner 5 µg/mL
first compound 0.0008 µg/mL	≥ 1	≥ 1	≥ 1
first compound 0.006 µg/mL	0.561	0.587	0.574

Conditions	Bliss interaction score
[4]	0.0817
[5]	0.0885
[6]	0.0677
[7]	-0.0259

CC1(C)S[C@@H]2[C@H](NC(=O)[C@H](N)c3ccc(O)cc3)C(=O)N2[C@H]1C(=O)O [Amoxicillin] + Cc1onc(-c2ccccc2)c1C(=O)N[C@@H]1C(=O)N2[C@@H]1SC(C)(C)[C@@H]2C(=O)O [Oxacillin]
Conditions	fitness
[1], first compound 0.0625 µg/mL, partner 0.0156 µg/mL	0.52
[1], first compound 0.0625 µg/mL, partner 0.0312 µg/mL	0.56
[1], first compound 0.0625 µg/mL, partner 0.0625 µg/mL	0.459
[1], first compound 0.125 µg/mL, partner 0.0156 µg/mL	0.342
[1], first compound 0.125 µg/mL, partner 0.0625 µg/mL	0.263
[1], first compound 0.25 µg/mL, partner 0.0156 µg/mL	0.107
[1], first compound 0.25 µg/mL, partner 0.0312 µg/mL	0.0945
[1], first compound 0.25 µg/mL, partner 0.0625 µg/mL	0.06
[1], first compound 0.5 µg/mL, partner 0.0156 µg/mL	0.0188
[1], first compound 0.5 µg/mL, partner 0.0312 µg/mL	0.0143
[1], first compound 0.5 µg/mL, partner 0.0625 µg/mL	0.021
[2], first compound 0.0625 µg/mL, partner 0.0156 µg/mL	0.724
[2], first compound 0.0625 µg/mL, partner 0.0312 µg/mL	0.651
[2], first compound 0.0625 µg/mL, partner 0.0625 µg/mL	0.575
[2], first compound 0.125 µg/mL, partner 0.0156 µg/mL	0.674
[2], first compound 0.125 µg/mL, partner 0.0625 µg/mL	0.547
[2], first compound 0.25 µg/mL, partner 0.0156 µg/mL	0.663
[3], first compound 0.0008 µg/mL, partner 0.01 µg/mL	0.985
[3], first compound 0.0008 µg/mL, partner 0.02 µg/mL	0.831
[3], first compound 0.0008 µg/mL, partner 0.04 µg/mL	0.33
[3], first compound 0.0015 µg/mL, partner 0.005 µg/mL	≥ 1
[3], first compound 0.0015 µg/mL, partner 0.01 µg/mL	0.977
[3], first compound 0.0015 µg/mL, partner 0.02 µg/mL	0.861
[3], first compound 0.0015 µg/mL, partner 0.04 µg/mL	0.266
[3], first compound 0.003 µg/mL, partner 0.005 µg/mL	0.957
[3], first compound 0.003 µg/mL, partner 0.01 µg/mL	0.882
[3], first compound 0.003 µg/mL, partner 0.02 µg/mL	0.825
[3], first compound 0.003 µg/mL, partner 0.04 µg/mL	0.12

fitness, [3], one replicate
Conditions	partner 0.005 µg/mL	partner 0.01 µg/mL	partner 0.02 µg/mL
first compound 0.0008 µg/mL	≥ 1	–	–
first compound 0.006 µg/mL	0.587	0.476	0.147

Conditions	Bliss interaction score
[4]	0.031
[5]	0.104
[6]	0.0431
[7]	-0.0929

CC1(C)S[C@@H]2[C@H](NC(=O)[C@H](N)c3ccc(O)cc3)C(=O)N2[C@H]1C(=O)O [Amoxicillin] + Cn1nnc(-c2ccc(-c3ccc(N4C[C@H](CO)OC4=O)cc3F)cn2)n1 [Tedizolid]
fitness
Conditions	partner 0.03125 µg/mL	partner 0.0625 µg/mL	partner 0.125 µg/mL	partner 0.25 µg/mL	partner 0.5 µg/mL
[1], first compound 0.0625 µg/mL	–	0.65	0.395	0.151	–
[1], first compound 0.125 µg/mL	–	–	0.184	0.0385	–
[1], first compound 0.25 µg/mL	–	0.0658	0.0466	0.0313	–
[2], first compound 0.0625 µg/mL	–	0.853	–	–	–
[2], first compound 0.125 µg/mL	–	0.807	–	–	–
[3], first compound 0.0008 µg/mL	0.961	0.966	0.781	–	–
[3], first compound 0.0015 µg/mL	0.949	0.94	0.788	0.692	0.306
[3], first compound 0.003 µg/mL	0.96	0.933	0.759	0.691	0.339

fitness, one replicate
Conditions	partner 0.0625 µg/mL	partner 0.125 µg/mL	partner 0.25 µg/mL	partner 0.5 µg/mL
[1], first compound 0.5 µg/mL	0.015	0.0045	0.0057	–
[3], first compound 0.0008 µg/mL	–	–	0.7	0.335
[3], first compound 0.006 µg/mL	–	0.562	0.462	0.283

Conditions	Bliss interaction score
[4]	-0.0425
[5]	-0.0515
[6]	-0.0673
[7]	0.175
